Patent US20240181022A1, “AMURINS LYSINS, AND LYSIN-ANTIMICROBIAL PEPTIDE (AMP) CONSTRUCTS ACTIVE AGAINST GRAM-NEGATIVE BACTERIA” (priority 2021, published 2024)
≈ marks a conversion by molar mass, not a printed value. Where two headings read alike, the source gives them in different places. Where no end group is shown, it is not given here. [ ]: non-standard residue; d: D form.

Assays:
A. dolens [1] = test: MIC by broth microdilution against A. dolens; assay type: cell-based, Achromobacter dolens; settings: A. dolens isolates
Experimental: (§1) MIC values were determined using a modification of the standard broth microdilution reference method defined by the Clinical and Laboratory Standards Institute (CLSI), CLSL. 2015. Methods for Dilution Antimicrobial Susceptibility Tests for Bacteria That Grow Aerobically; Approved Standard-10th Edition. Clinical and Laboratory Standards Institute, Wayne, PA. The modification was based on the replacement of Mueller Hinton Broth with either CAA media (with and without NaCl) or CAA supplemented with 2.5% human serum. MIC is the minimum concentration of peptide sufficient to suppress at least 80% of the bacterial growth compared to control.
(§2) Based on these nine most prevalent strains, direct lytic agents, including GN370, AM1, AM2, and AM3, were evaluated against various isolates from each of the 9 strains. MICs and MBECs (Example 3) were determined, and a sputum inhibition test was conducted, as described below in Example 5.
(§3) The MICs for were determined as described below using the broth microdilution method for meropenem, GN370, AM1, AM2, and AM3. The results are shown below in Tables 8-12.

S. maltophilia [2] = test: Time-kill assay in cystic fibrosis patient sputum, S. maltophilia; assay type: cell-based, Stenotrophomonas maltophilia
Source text: (§4) Sputum from 5 cystic fibrosis patients was pooled. The resulting mixture was not filtered, as it was very dense and not amenable to sterilization by filtration. Sputum is known to be a complex mixture of DNA, carbohydrates, and lipids ([…], 2016). As used herein, the term “sputum” refers to the mucus present in the respiratory tract of an animal, such as a human. Sputum may increase in thickness due to the irritation or infection, including bacterial infection, and in some instances, may be expelled by the animal while coughing. In certain instances, cystic fibrosis may be characterized by the presence of a thick, sticky mucus or sputum present in the lungs of cystic fibrosis patients. The activity of GN370, AM1, AM2, AM3, and meropenem was determined in the sputum using a time-kill assay format as disclosed in Zhang et al., Antimicrobial peptide therapeutics for cystic fibrosis, Antimicrobial Agents Chemother. 2005; 49(7):2921-2927. […] Untreated controls were included in addition to pretreatment plating (t=0) for a baseline CFU determination. Activity was also determined in the absence of sputum for comparison to activity observed in the presence of sputum.

B. gladioli = test: MIC by broth microdilution against B. gladioli; assay type: cell-based, Burkholderia gladioli; settings: B. gladioli isolates
Experimental: as §1, §2, §3

P. aeruginosa [3] = tested on: P. aeruginosa
P. aeruginosa [4] = test: Time-kill assay in cystic fibrosis patient sputum, P. aeruginosa; assay type: cell-based, Pseudomonas aeruginosa
Source text: as §4

M. avium = test: MIC against M. avium; assay type: cell-based, Mycobacterium avium; settings: M. avium (ATCC 700898); CAAT media
A. ruhlandii = assay type: cell-based, Achromobacter ruhlandii
Experimental: (§5) The MBEC (after 2-hour treatments) was determined as described in Jones and Wozniak, PsI Produced by Mucoid Pseudomonas aeruginosa Contributes to the Establishment of Biofilms and Immune Evasion, Am. Soc. Microbiol. 2017, 8(3):e00864-17. Meropenem and tobramycin were included as controls and were both poorly active, with MBEC90 values of >256 μg/mL (data not shown).

M. abscessus = test: MIC against MDR M. abscessus isolates; assay type: cell-based, Mycobacterium abscessus; settings: 7 days, AST media (CAAT)
M. fortuitum = test: MIC against M. fortuitum; assay type: cell-based, Mycobacterium fortuitum; settings: M. fortuitum (ATCC 6841); CAAT media
P. aeruginosa [5] = tested on: P. aeruginosa; remark: listed apart in the source
A. dolens [6] = assay type: cell-based, Achromobacter dolens
Experimental: as §5

M. kansasii = test: MIC against M. kansasii; assay type: cell-based, Mycobacterium kansasii; settings: M. kansasi (ATCC 12478); CAAT media
P. aeruginosa [7] = test: Serial passage resistance development study, P. aeruginosa; assay type: cell-based, Pseudomonas aeruginosa; settings: P. aeruginosa strain CFS 1292, Day 28
S. maltophilia [8] = test: Serial passage resistance development study, S. maltophilia; assay type: cell-based, Stenotrophomonas maltophilia; settings: S. maltophilia, day 28, triplicate
[9] = P. aeruginosa test organism of the sputum time-kill assay

Compound: C[C@@H](O)[C@H]1C(=O)N2C(C(=O)O)=C(S[C@@H]3CN[C@H](C(=O)N(C)C)C3)[C@H](C)[C@H]12 [meropenem, reference compound]
- MIC50 (A. dolens [1]): 2 µg/mL (≈ 5.22 µM)
- MIC90 (A. dolens [1]): > 32 µg/mL
- activity in the presence and absence of sputum (S. maltophilia [2]): poorly active
- Log10 CFU/mL of sputum (S. maltophilia [2]; absence of sputum, 1 hr): 5.04 Log10 CFU/mL of sputum
- Log10 CFU/mL of sputum (S. maltophilia [2]; absence of sputum, 3 hr): 4.7 Log10 CFU/mL of sputum
- Log10 CFU/mL of sputum (S. maltophilia [2]; absence of sputum, 24 hr): 7.95 Log10 CFU/mL of sputum
- Log10 CFU/mL of sputum (S. maltophilia [2]; presence of 10% sputum, 1 hr): 3.78 Log10 CFU/mL of sputum
- Log10 CFU/mL of sputum (S. maltophilia [2]; presence of 10% sputum, 3 hr): 4.26 Log10 CFU/mL of sputum
- Log10 CFU/mL of sputum (S. maltophilia [2]; presence of 10% sputum, 24 hr): 6.3 Log10 CFU/mL of sputum
- MIC50 (B. gladioli): 1 µg/mL (≈ 2.61 µM)
- MIC90 (B. gladioli): 2 µg/mL (≈ 5.22 µM)
- MIC50 (P. aeruginosa [3]; P. aeruginosa isolates): 4 µg/mL (≈ 10.4 µM)
- MIC90 (P. aeruginosa [3]; P. aeruginosa isolates): 32 µg/mL (≈ 83.4 µM)
- MIC (P. aeruginosa [3]; [9]): (MIC = 0.125)
- MIC (P. aeruginosa [3]; […], before serial passage): 0.5 µg/mL (≈ 1.3 µM)
- activity in the presence and absence of sputum (P. aeruginosa [4]): poorly active
- Log10 CFU/mL of sputum (P. aeruginosa [4]; absence of sputum, 1 hr): 5.38 Log10 CFU/mL of sputum
- Log10 CFU/mL of sputum (P. aeruginosa [4]; absence of sputum, 3 hr): 4.98 Log10 CFU/mL of sputum
- Log10 CFU/mL of sputum (P. aeruginosa [4]; absence of sputum, 24 hr): 6.38 Log10 CFU/mL of sputum
- Log10 CFU/mL of sputum (P. aeruginosa [4]; presence of 10% sputum, 1 hr): 5.26 Log10 CFU/mL of sputum
- Log10 CFU/mL of sputum (P. aeruginosa [4]; presence of 10% sputum, 3 hr): 4.78 Log10 CFU/mL of sputum
- Log10 CFU/mL of sputum (P. aeruginosa [4]; presence of 10% sputum, 24 hr): 6.6 Log10 CFU/mL of sputum

Compound: M[dR]L[dK]MA[dR][dR][dR]Y[dR]LP[dR][dR][dR]S[dR][dR]LFS[dR]TAL[dR]MHP[dR]N[dR]L[dR][dR]IM[dR]GGI[dR]F [AM2]
- MIC (M. avium): 1 Tg/mL
- MBEC50 (A. ruhlandii): 8 µg/mL
- MBEC90 (A. ruhlandii): 32 µg/mL
- MBEC Range (A. ruhlandii): 1 to 32 µg/mL
- MIC (M. abscessus; M. abscessus strain BK51402): 2 µg/mL
- MIC (M. abscessus; M. abscessus strain BK51403 (ATCC 19977)): 4 µg/mL
- MIC (M. abscessus; M. abscessus strain BK51408): 8 µg/mL
- MIC (M. abscessus; M. abscessus strain BK55096): 4 µg/mL
- MIC (M. abscessus; M. abscessus strain BK55691): 1 µg/mL
- MIC (M. abscessus; M. abscessus strain BK58156): 1 µg/mL
- MIC50 (A. dolens [1]): 4 µg/mL
- MIC90 (A. dolens [1]): 8 µg/mL
- MIC Range (A. dolens [1]; in µg/mL): 0.016-16
- effect of sputum on antibacterial activity (S. maltophilia [2]; 10% CF sputum vs no sputum): none of GN370, AM1, AM2, and AM3 was inhibited
- Log10 CFU/mL of sputum (S. maltophilia [2]; absence of sputum, 1 hr): 2.3 Log10 CFU/mL of sputum
- Log10 CFU/mL of sputum (S. maltophilia [2]; absence of sputum, 3 hr): 2.3 Log10 CFU/mL of sputum
- Log10 CFU/mL of sputum (S. maltophilia [2]; absence of sputum, 24 hr): 2.3 Log10 CFU/mL of sputum
- Log10 CFU/mL of sputum (S. maltophilia [2]; presence of 10% sputum, 1 hr): 2.3 Log10 CFU/mL of sputum
- Log10 CFU/mL of sputum (S. maltophilia [2]; presence of 10% sputum, 3 hr): 2.3 Log10 CFU/mL of sputum
- Log10 CFU/mL of sputum (S. maltophilia [2]; presence of 10% sputum, 24 hr): 2.3 Log10 CFU/mL of sputum
- killing by 1 hour, maintained at 24 hours (S. maltophilia [2]; time-kill): complete killing
- MIC (M. fortuitum): 4 µg/mL
- MIC50 (B. gladioli): 4 µg/mL
- MIC90 (B. gladioli): 8 µg/mL
- MIC Range (B. gladioli; in µg/mL): 0.016-16
- MIC50 (P. aeruginosa [3]; P. aeruginosa isolates): 0.06 µg/mL
- MIC90 (P. aeruginosa [3]; P. aeruginosa isolates): 0.25 µg/mL
- MIC Range (P. aeruginosa [3]; P. aeruginosa isolates): 0.016-0.5^
- MIC (P. aeruginosa [3]; [9]): (MIC = 0.25)
- activity (MIC) against P. aeruginosa isolates (P. aeruginosa [3]; all tested isolates, Tables 8-12): highly active
- MBEC50 (P. aeruginosa [5]): 0.25 µg/mL
- MBEC90 (P. aeruginosa [5]): 1 µg/mL
- MBEC Range (P. aeruginosa [5]): 0.016 to 2 µg/mL
- antibiofilm activity (MBEC) against P. aeruginosa (P. aeruginosa [5]; 2-hour treatments): highly active
- MBEC50 (A. dolens [6]): 4 µg/mL
- MBEC90 (A. dolens [6]): 8 µg/mL
- MBEC Range (A. dolens [6]): 1 to 8 µg/mL
- MIC (M. kansasii): 2 µg/mL
- effect of sputum on antibacterial activity (P. aeruginosa [4]; 10% CF sputum vs no sputum): not inhibited
- Log10 CFU/mL of sputum (P. aeruginosa [4]; absence of sputum, 1 hr): 2.3 Log10 CFU/mL of sputum
- Log10 CFU/mL of sputum (P. aeruginosa [4]; absence of sputum, 3 hr): 2.3 Log10 CFU/mL of sputum
- Log10 CFU/mL of sputum (P. aeruginosa [4]; absence of sputum, 24 hr): 2.3 Log10 CFU/mL of sputum
- Log10 CFU/mL of sputum (P. aeruginosa [4]; presence of 10% sputum, 1 hr): 2.3 Log10 CFU/mL of sputum
- Log10 CFU/mL of sputum (P. aeruginosa [4]; presence of 10% sputum, 3 hr): 2.3 Log10 CFU/mL of sputum
- Log10 CFU/mL of sputum (P. aeruginosa [4]; presence of 10% sputum, 24 hr): 2.3 Log10 CFU/mL of sputum
- killing by 1 hour, maintained by 24 hours (P. aeruginosa [4]; time-kill): complete killing
- change in MIC over serial passage (P. aeruginosa [7]): no significant changes
- change in MIC over serial passage (S. maltophilia [8]): no increase in MIC
